From patent US20150315211A1, “SMALL MOLECULES FOR THE MODULATION OF MCL-1 AND METHODS OF MODULATING CELL DEATH, CELL DIVISION, CELL DIFFERENTIATION AND METHODS OF TREATING DISORDERS” (priority 2010, published 2015) come the findings set out here.

Experiment [1] concerns the target MCL-1ΔNΔC (Homo sapiens, UniProt Q07820). Briefly: High-throughput competitive FP binding screen, FITC-MCL-1 SAHB/MCL-1ΔNΔC interaction. On the set-up: the C-terminal alpha-helix was deleted from each of these constructs; GST (N, cleaved yes); made in house. The conditions noted are these: FITC-MCL-1 SAHB/MCL-1ΔNΔC interaction pair, competitive FP screen.
Experiment [2] addresses BCL-XLΔC (Homo sapiens, UniProt Q07817). Briefly: High-throughput competitive FP binding screen, FITC-BAD BH3/BCL-XLΔC interaction. The settings on record: FITC-BAD BH3/BCL-XLΔC interaction pair, competitive FP screen.
The test system of experiment [3] is MCL-1ΔNΔC. Briefly: High-throughput competitive FP binding screen, FITC-MCL-1 SAHB/MCL-1ΔNΔC interaction. The settings on record: selectivity for MCL-1ΔNΔC over BCL-XLΔC targeting (BCL-XL % Bound minus MCL-1 % Bound).

Chain of MCL-1ΔNΔC (Homo sapiens, UniProt Q07820) (Q07820 172-320 limits assumed, stated change not applied): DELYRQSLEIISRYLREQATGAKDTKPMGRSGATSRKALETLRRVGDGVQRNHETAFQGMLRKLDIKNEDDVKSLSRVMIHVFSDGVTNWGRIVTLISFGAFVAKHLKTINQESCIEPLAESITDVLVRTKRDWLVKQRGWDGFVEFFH
Chain of BCL-XLΔC (Q07817 1-212 limits assumed, stated change not applied): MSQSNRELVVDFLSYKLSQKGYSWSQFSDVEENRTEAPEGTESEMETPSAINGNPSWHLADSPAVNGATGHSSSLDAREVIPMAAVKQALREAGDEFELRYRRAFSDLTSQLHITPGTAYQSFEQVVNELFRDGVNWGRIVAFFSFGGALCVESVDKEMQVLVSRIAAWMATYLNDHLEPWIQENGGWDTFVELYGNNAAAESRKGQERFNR

For `CCOc1ccc(S(=O)(=O)NC2C=C(Sc3nc[nH]n3)C(=O)c3ccccc32)cc1` (stereo not drawn), in experiment [1], the “MCL-1% Bound” value was 2.333%. For the same molecule, in experiment [2], the “BCL-XL % Bound” value was found to be 103.4%. The “Spec Values” in experiment [3] was found to be 101.1.
Taken in the same sequence, the figures for `O=C1C(Sc2nc[nH]n2)=CC(NS(=O)(=O)c2ccc(F)cc2)c2ccccc21` (stereo not drawn) were 4.952%, 96.12% and 91.16.
On the same counts, the results for `O=S(=O)(Nc1ccc(O)c2ccccc12)c1ccccc1` are 19.67%, 96.39% and 76.72.
Taken in the same sequence, the figures for `O=C1C(Sc2nc[nH]n2)=C/C(=N/S(=O)(=O)c2cccs2)c2ccccc21` were 19.75%, 93.16% and 73.41.
For the molecule `Cc1cc2nc(N3CCC(C)CC3)c3ccccc3n2n1`, in experiment [1], the “MCL-1% Bound” value was −1.786%. Besides, the “BCL-XL % Bound” value in experiment [2] turned out to be 106.7%. The “Spec Values” in experiment [3] was 108.5.
On the same counts, the results for `CC(C)(C)c1cc(Cc2ccc(O)c(O)c2)cc(C(C)(C)C)c1O` are −11.56%, 96.57% and 108.1.
Taken in the same sequence, the figures for `Oc1c(C(c2cccs2)N2CCCCC2)ccc2cccnc12` (stereo not drawn) were 9.463%, 115.2% and 105.7.
On the same counts, the results for `CC1(C)CC2CC(C)(CN2c2nc(N)c3c(N)nc4c(c3c2C#N)CC(=O)N4C2CCCC2)C1` (stereo not drawn) are 10.72%, 114.7% and 104.
For the molecule `CCOc1ccc(S(=O)(=O)/N=C2/C=C(Sc3nc[nH]n3)C(=O)c3ccccc32)cc1`, in experiment [1], the “MCL-1% Bound” value stood at 2.333%. Besides, in experiment [2], the “BCL-XL % Bound” value turned out to be 103.4%. The “Spec Values” in experiment [3] was 101.1.
On the same counts, the results for `O=C1NC(=S)N/C1=C1/C(=O)Nc2ccccc21` are 14.04%, 112.9% and 98.82.
Taken in the same sequence, the figures for `Oc1ccc(/C=N/NC(=S)Nc2ccc(Cl)cc2Cl)c(O)c1O` were −10.87%, 87.36% and 98.23.
On the same counts, the results for `COc1cc(OC)c(C2=NOC(C(=O)Nc3cc(C)n(CC(=O)NCc4ccco4)n3)C2)cc1Cl` (stereo not drawn) are −14.5%, 83.62% and 98.12.
With `CCOC(=O)/C(C#N)=C\c1ccc(N2CCOCC2)cc1`, the “MCL-1% Bound” value in experiment [1] is on record as −18.5%. Also, in experiment [2], the “BCL-XL % Bound” value amounted to 78.1%. In experiment [3], the “Spec Values” is given as 96.6.
For `Cc1ccc(C2=NC(=O)/C(=C/c3cc(O)c(O)c(Br)c3)S2)cc1`, in experiment [1], the “MCL-1% Bound” value stood at 2.607%. Besides, in experiment [2], the “BCL-XL % Bound” value is 96.59%. Also, the “Spec Values” in experiment [3] is on record as 93.98.
With `O=C1C(Sc2nc[nH]n2)=C/C(=N/S(=O)(=O)c2ccc(F)cc2)c2ccccc21`, in experiment [1], the “MCL-1% Bound” value is on record as 4.952%. Moreover, in experiment [2], the “BCL-XL % Bound” value stood at 96.12%. In experiment [3], the “Spec Values” came out at 91.16.
Regarding `NC(=O)c1c(Nc2nc3c(F)cccc3s2)sc2c1CCCC2`, the “MCL-1% Bound” value in experiment [1] was determined as 14.83%. Also, the “BCL-XL % Bound” value in experiment [2] came to 103.9%. Moreover, the “Spec Values” in experiment [3] is given as 89.1.
On the same counts, the results for `O=C(c1ccccc1)c1ccc2nc(-c3ccco3)c(-c3ccco3)nc2c1` are 14.6%, 101.3% and 86.7.
On the same counts, the results for `CC(C)(C)c1cc(O)c2oc(=O)c(-c3nc(-c4ccccc4F)no3)cc2c1` are −13.01%, 71.1% and 84.11.
Take `C/N=c1\scc(-c2c[nH]c3ccccc23)n1C`: the “MCL-1% Bound” value in experiment [1] was 30.17%. Further, the “BCL-XL % Bound” value in experiment [2] was 114.1%. Besides, the “Spec Values” in experiment [3] was determined as 83.96.
On the same counts, the results for `Cc1ccc(NC(=O)COc2ncnc3c2cnn3-c2ccccc2)cc1` are 16.2%, 99.91% and 83.71.
Taken in the same sequence, the figures for `O=S(=O)(Nc1ccc(Oc2ccc(Cl)cc2C2CCCCC2)nc1)c1cccc2nonc12` were 20.72%, 103.4% and 82.7.
In the case of `CC(C)c1ccc(C2=CC(=O)C=CC2=O)cc1`, in experiment [1], the “MCL-1% Bound” value came to 6.516%. For the same molecule, in experiment [2], the “BCL-XL % Bound” value is on record as 89.1%. Also, the “Spec Values” in experiment [3] is 82.58.
Taken in the same sequence, the figures for `CCc1cccc(NC(=O)/C=C/c2ccco2)c1` were −0.7334%, 80.4% and 81.13.
On the same counts, the results for `Cc1occc1-c1nnc2n1N=C(c1ccc(-c3cc(Cl)ccc3Cl)o1)CS2` are 22.98%, 104% and 81.03.
